Test results published in patent US6624140B1, “Synthetic peptides with antimicrobial and endotoxin neutralizing properties for management of the sepsis syndrome” (Academisch Ziekenhuis Bij de Universiteit van Amsterdam …, priority 1997, dated 2003).
No end group written: not given here.

What was measured:
[1] = system: Escherichia coli serotype 0111:B4; test: Bactericidal activity in liquid culture, E. coli 0111:B4; format: cell-based; details: for % bacteria killed: 10^7 E. coli 0111:B4 bacteria/ml LB medium at 37° C., concentration effective dose 3 (M^−6); for effect on cell-density of Gram-negative bacterial cultures: in words
Experimental: FIGS. 1A and 1B. The effect of synthetic peptides on the survival of E. coli 0111:B4 (panel A) or S. aureus (panel B). Logarithmically growing bacterial cells at a density of 10^7 cells/ml in Luria-Bertani (LB) medium were incubated with synthetic peptides at concentrations of 3, 5 and 7 μg/ml (1, 2 and 3 μM) at 37° C. for 1 h and the residual cell density expressed as a percentage of the value obtained from bacterial cultures without added peptides.
A peptide encompassing a selected LPS-binding domain from a well characterized human antiendotoxin protein, known as bactericidal/permeability increasing protein (BPI), from amino acids 85 to 102, denoted as BPI(85-102), was included for a direct comparison of the efficacy of the endotoxin-binding domain of a naturally occurring protein and the synthetic peptides of the invention. The amino acid sequence of the BPI(85-102) peptide is:
The BPI(85-102) reference peptide was synthesized as previously described for peptides of the invention and provided with a C-terminal Cys residue for the purpose of biotinylation as previously described. […] Incubation of various concentrations of the synthetic peptides according to the invention for a limited time period on the survival of both types of bacteria again illustrated their potent anti-microbial activity as opposed to that of the BPI(85-102) peptide (FIG. 1) with the sequence corresponding to that of the potential LPS binding domain of the native BPI protein. This is indicative of a broad specificity of the synthetic peptides, in keeping with the general bactericidal properties of this class of linear amphipathic α-helical peptides. […] The B2 residue in the N-terminal repetitive sequence element in each instance, instead of an aromatic amino acid residue, as specified by the formula of the invention, was replaced with an Ala residue and the hydrophobic (C2)n element made hydrophilic by substitution with Lys and Cys residues.

[2] = Solid-state Lipid A binding ELISA microplate assay; parameters: species or system Escherichia coli; details: for apparent binding affinity Ka for Lipid A: biotinylated derivatives, immobilized E. coli D31m4 Lipid A, Scatchard plot
Experimental: FIG. 3. Lipid A binding affinity of the synthetic peptides. Plastic ELISA microtiter plates were coated with purified E. coli D31m4 Lipid A at 1 μg/ml. Incubations were for 20 min with the indicated concentrations of synthetic peptides BP1, BP2 or BP2.1 or control peptide BPI(85-102) followed by streptavidin-HRP at a dilution of 1 in 20 000. Washing steps to remove excess peptide or streptavidin were with 50 mM Tris buffer pH 7.4 containing 0.05% (v/v) Tween 20. Development was with TMB substrate for 10 min. The optical density (O.D) at 450 nm was measured with a microplate reader and values were corrected for non-specific binding which was generally between 5 and 10%. The plotted values are the corrected means of triplicate experiments.
Double-immunodiffusion of the peptides of the invention against ‘rough’ R-type E. coli D31m4 Re-LPS (List Biological Laboratories Inc., Calif.) or the structurally more complex ‘smooth’ S-type E. coli 0111:B4 LPS (Sigma Chemical Co., Rockford, Ill.) was performed in 0.8% (w/v) agarose containing 50 mM Tris and 0.1% (w/v) Triton X100, pH 7.5. for 16 h at 20° C. PmB and BPI(85-102) were included as control compounds for comparative purposes. The microprecipitates formed were visualized by Coommassie brilliant blue staining. […] Since the amount of precipitate formed is a function of valency, the peptides of the invention appear to be capable of a high degree of intermolecular binding of LPS molecules via the Lipid A moieties. […] A turbidity assay was employed for a direct comparison of the endotoxin-binding activity or avidity of selected synthetic peptides according to the invention using the ‘rough’ serotypes E. coli Re or Rc (J5) LPS. PmB and BPI(85-102) were included as control compounds for comparative purposes. The degree of precipitation of endotoxin by the synthetic peptides according to the invention was determined by measurement of the optical density of insoluble complexes formed at 340 nm (FIG. 2). In most instances optimal complexation of Re or J5 LPS by the synthetic peptides of the invention was evident at a molar ratio of peptide to endotoxin of 1 to 2. The control BPI(85-102) peptide was required at a 4-fold molar excess for approximately the same degree of complexation. […] There was no significant difference between complexation of Re or the structurally more complex J5-LPS by the synthetic peptides. […] The Lipid A binding affinity of the synthetic peptides were directly compared in a solid-state endotoxin-binding assay. Binding characteristics of biotinylated derivatives of the synthetic peptides BP1, BP2, BP2.1 and the control peptide BPI(85-102) were determined on ELISA microtiter plates coated with E. coli D31m4 Lipid A. Specific binding of the biotinylated peptides to the immobilized Lipid A was determined by development with Streptavidin-HRP and 3, 5, 3′, 5′ tetra-methylbenzidine (TMB) substrate and expressed as the corrected optical density at 450 nm. […] The affinity of the novel synthetic peptide BP2 for endotoxin of increasing complexity as well as the effect of plasma on binding was examined with the use of the ELISA microplate assay.

[3] = Double-immunodiffusion against 0111:B4 LPS; format: binding, Escherichia coli; details: 0.8% agarose, 16 h at 20° C.; data not shown
Experimental: Double-immunodiffusion of the peptides of the invention against ‘rough’ R-type E. coli D31m4 Re-LPS (List Biological Laboratories Inc., Calif.) or the structurally more complex ‘smooth’ S-type E. coli 0111:B4 LPS (Sigma Chemical Co., Rockford, Ill.) was performed in 0.8% (w/v) agarose containing 50 mM Tris and 0.1% (w/v) Triton X100, pH 7.5. for 16 h at 20° C. PmB and BPI(85-102) were included as control compounds for comparative purposes. The microprecipitates formed were visualized by Coommassie brilliant blue staining. […] Since the amount of precipitate formed is a function of valency, the peptides of the invention appear to be capable of a high degree of intermolecular binding of LPS molecules via the Lipid A moieties. […] The degree of precipitation of endotoxin by the synthetic peptides according to the invention was determined by measurement of the optical density of insoluble complexes formed at 340 nm (FIG. 2). […] Binding characteristics of biotinylated derivatives of the synthetic peptides BP1, BP2, BP2.1 and the control peptide BPI(85-102) were determined on ELISA microtiter plates coated with E. coli D31m4 Lipid A. Specific binding of the biotinylated peptides to the immobilized Lipid A was determined by development with Streptavidin-HRP and 3, 5, 3′, 5′ tetra-methylbenzidine (TMB) substrate and expressed as the corrected optical density at 450 nm. […]

[4] = ELISA binding to immobilized endotoxins of increasing complexity, effect of plasma; parameters: species or system Escherichia coli
Experimental: FIG. 4. Effect of endotoxin complexity and plasma concentration on the binding of synthetic peptide BP2 of the invention to immobilized LPS. Coated ELISA microtiter plates containing E.coli D31m4 Lipid A, Re, J5 or 0111:B4 LPS were incubated with synthetic peptide at a concentration of 40 ng/ml in the presence of plasma at dilutions to 10% (v/v). Binding activity was determined by the ELISA microplate lipid A binding assay as previously described.
Double-immunodiffusion of the peptides of the invention against ‘rough’ R-type E. coli D31m4 Re-LPS (List Biological Laboratories Inc., Calif.) or the structurally more complex ‘smooth’ S-type E. coli 0111:B4 LPS (Sigma Chemical Co., Rockford, Ill.) was performed in 0.8% (w/v) agarose containing 50 mM Tris and 0.1% (w/v) Triton X100, pH 7.5. for 16 h at 20° C. PmB and BPI(85-102) were included as control compounds for comparative purposes. The microprecipitates formed were visualized by Coommassie brilliant blue staining. […] Since the amount of precipitate formed is a function of valency, the peptides of the invention appear to be capable of a high degree of intermolecular binding of LPS molecules via the Lipid A moieties. […] The degree of precipitation of endotoxin by the synthetic peptides according to the invention was determined by measurement of the optical density of insoluble complexes formed at 340 nm (FIG. 2). […]

| Substance | % bacteria killed [1] | effect on cell-density of Gram-negative bacterial cultures [1] | difference in binding affinity for Lipid A compared with BPI(85-102) [2] | apparent binding affinity Ka for Lipid A [2] | precipitation of 0111 LPS [3] | fold higher affinity for Lipid A compared with Polymyxin B [2] | degree of binding versus complexity of immobilized LPS ([4]; peptide 40 ng/ml) | effect of plasma on binding to endotoxins ([4]; up to 5% (v/v) heat-treated, clarified plasma) |
| --- | --- | --- | --- | --- | --- | --- | --- | --- |
| GRLRKKWKAFKKFLKILAC [BP1] | 88% | dose-dependent reduction | approximately 5 fold | 9e+07 M⁻¹ |  |  |  |  |
| Ile-Lys-Ile-Ser-Gly-Lys-Trp-Lys-Ala-Gin-Lys-Arg-Phe-Leu-Lys-Met-Ser-Gly-(Cys) (IKISGKWKAQKRFLKMSGC; listed as Homo sapiens) [BPI(85-102), reference compound] | 31% | slight effect |  | 2e+07 M⁻¹ | considerably less |  |  |  |
| GKWKLFKKAFKKFLKILAC-OH [BP2, Gly-Lys-Trp-Lys-Leu-Phe-Lys-Lys-Ala-Phe-Lys-Lys-Phe-Leu-Lys-Ile-Leu-Ala-Cys] |  | dose-dependent reduction | ~10 fold | 1.9e+08 M⁻¹ |  | approximately 20 fold | decreases with increasing complexity of immobilized LPS | no significant effect |
